The text below walks through data of patent US20030108986A1, “Compositions and methods comprising G-protein coupled receptors” (Euroscreen, S.A., priority 2001, published 2003).

The target of assay [1] is T1, GPCRx11 (Homo sapiens, UniProt Q96LB1).
T1 construct: expressed in transfected cells; host or cells: CHO-K1
T1 sequence (Q96LB1 1-330): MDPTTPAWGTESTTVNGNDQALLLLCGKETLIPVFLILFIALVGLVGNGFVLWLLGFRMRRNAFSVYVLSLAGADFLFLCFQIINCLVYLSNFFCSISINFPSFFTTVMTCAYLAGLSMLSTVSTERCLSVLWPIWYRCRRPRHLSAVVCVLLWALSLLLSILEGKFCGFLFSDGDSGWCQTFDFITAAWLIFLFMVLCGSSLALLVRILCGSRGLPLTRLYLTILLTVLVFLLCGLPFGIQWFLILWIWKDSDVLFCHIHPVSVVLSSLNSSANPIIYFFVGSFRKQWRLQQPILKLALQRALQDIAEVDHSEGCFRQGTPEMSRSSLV
Description: aequorin-based assay of GPCRx11 activation by angiopeptin. Type of assay: cell-based. As for the experimental part:
As used herein, the term “aequorin-based assay” refers to an assay for GPCR activity that measures elevations in intracellular calcium induced by activated GPCRs, wherein intracellular calcium flux is measured by the luminescence of mitochondiral aequorin expressed in the cell.
The aequorin assay takes advantage of the responsiveness of mitochondrial apoaequorin to intracellular calcium release induced by the activation of GPCRs (Stables et al., 1997, Anal. Biochem. 252:115-126; Detheux et al., 2000, J. Exp. Med., 192 1501-1508; both of which are incorporated herein by reference). Briefly, GPCR-expressing clones are transfected to coexpress mitochondrial apoaequorin and Gα16. Cells are incubated with 5 μM Coelenterazine H (Molecular Probes) for 4 hours at room temperature, washed in DMEM-F12 culture medium and resuspended at a concentration of 0.5×10^6 cells/ml. Cells are then mixed with test agonist, or ligand molecules and light emission by the aequorin is recorded with a luminometer for 30 sec. Results are expressed as Relative Light Units (RLU). Controls include assays using membranes isolated from cells not expressing GPCRs (mock transfected), in order to exclude possible non-specific effects of the candidate compound. […]

In assay [2] the target is GPCRx11 (human) (UniProt Q96LB1).

Broadly, the EC50 is the concentration that produces a half-maximal response. For `CC(C)[C@@H]1NC(=O)[C@H](CCCCN)NC(=O)[C@@H](Cc2c[nH]c3ccccc23)NC(=O)[C@H](Cc2ccc(O)cc2)NC(=O)[C@@H](NC(=O)[C@H](N)Cc2ccc3ccccc3c2)CSSC[C@@H](C(=O)N[C@H](C(N)=O)[C@@H](C)O)NC1=O` [angiopeptin], the “ligand of the receptor GPCRx11” value in assay [1] (GPCRx11 (SEQ ID NO: 12)) is given as “natural ligand”. Also, the EC50 in assay [1] (GPCRx11 polypeptide bound by angiopeptin, transfected CHO-K1 cells (FIG. 16), read-out: EC50 of stimulation of mitochondrial aequorin fluorescence) was not above 160 nM.
In assay [2], angiopeptin (peptide) registered an EC50 (read off the curve); aequorin luminescence (RLU) in transfected CHO-K1 cells of 100 nM and an EC50; aequorin luminescence (RLU) in transfected CHO-K1 cells of 159 nM.
